Consider twelve molecules from ChEMBL document CHEMBL1130361, “Homology modeling of the ampa receptor: A quantitative predictive tool for the design of novel antagonists” (Bioorg Med Chem Lett, 1997).

SMILES strings stand for the structures.

The experiment deals with Glutamate receptor ionotropic AMPA (Homo sapiens, UniProt P42261+P42262+P42263+P48058).
Description: Binding affinity against AMPA receptor using [3H]- AMPA radioligand
As to `CCN1CCc2c([N+](=O)[O-])cc3[nH]c(=O)c(=O)[nH]c3c2C1`, the IC50 – broadly, the midpoint of a concentration-inhibition curve – came out at 0.166 µM.
In the case of `CN1CCc2c(-c3ccc([N+](=O)[O-])cc3)cc3c(c2C1)NC(=O)/C3=N\O`, half-maximal inhibition (IC50) required 0.15 µM.
As for `O=C1Nc2c(ccc3c2CCCC3)/C1=N/O`, the figure is 7.2 µM.
With `C[C@@]12CC[C@H](CSc3nn[nH]n3)C[C@]1(C)CC(C(=O)O)NC2` (some centres not stated), inhibition was half-maximal at 0.58 µM (IC50).
Consider `C[C@@]12CC[C@H](CCc3nnn[nH]3)C[C@]1(C)CC(C(=O)O)NC2` (some centres not stated), for which the 50% inhibitory concentration (IC50) came to 1.35 µM.
To `CN1Cc2c(S(=O)(=O)N(C)C)cc3c(N=O)c(O)[nH]c3c2C1` belongs 0.7 µM; to `COC(=O)c1cc2nc(O)c(O)nc2c2c1CN(C)CC2`, 44 µM; to `Oc1nc2ccc3c(c2nc1O)CCCN3`, 24 µM.
`C[C@@]12CC[C@H](CS(=O)(=O)c3nc[nH]n3)C[C@]1(C)CC(C(=O)O)NC2` (some centres not stated) yielded a half-inhibitory concentration (IC50) of 0.63 µM.
To `O=[N+]([O-])c1ccc2nc(O)c(O)nc2c1` belongs 2 µM; to `CC(C)N1CCc2c([N+](=O)[O-])cc3[nH]c(=O)c(=O)[nH]c3c2C1`, 0.153 µM; to `CN1CCc2c([N+](=O)[O-])cc3[nH]c(=O)c(=O)[nH]c3c2C1`, 0.08 µM.
